The source of these data is patent US7879876B2, “Sulfonamide derivatives and use thereof for the modulation of metalloproteinases” (Merck Serono SA, priority 2005, dated 2011).

pIC50: −log10 of the molar value.

One assay addresses T1, gelatinase A (MMP-2) (Homo sapiens, UniProt P08253).
T1 sequence (P08253 110-660): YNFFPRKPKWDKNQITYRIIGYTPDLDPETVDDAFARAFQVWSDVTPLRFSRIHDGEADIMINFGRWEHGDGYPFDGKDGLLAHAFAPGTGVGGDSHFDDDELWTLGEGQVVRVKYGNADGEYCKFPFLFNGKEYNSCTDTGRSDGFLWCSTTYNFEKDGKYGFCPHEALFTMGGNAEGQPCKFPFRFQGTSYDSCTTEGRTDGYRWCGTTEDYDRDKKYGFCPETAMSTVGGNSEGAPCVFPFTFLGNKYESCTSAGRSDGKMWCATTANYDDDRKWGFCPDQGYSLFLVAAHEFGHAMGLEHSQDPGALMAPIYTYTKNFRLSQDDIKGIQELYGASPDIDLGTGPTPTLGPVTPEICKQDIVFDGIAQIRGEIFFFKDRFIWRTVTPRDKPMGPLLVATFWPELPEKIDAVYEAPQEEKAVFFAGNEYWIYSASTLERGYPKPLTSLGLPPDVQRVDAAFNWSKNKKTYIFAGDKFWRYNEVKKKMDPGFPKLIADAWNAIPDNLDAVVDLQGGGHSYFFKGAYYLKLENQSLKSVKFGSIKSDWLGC
Put plainly: MMP-2 enzyme inhibition assay (coumarin-labelled peptide substrate). Format: biochemical. To be noted: read-out: IC50 MMP2. The gist of the method:
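Recombinant human MMP-2, APMA-activated if necessary, run as for the MMP-9 protocol: McaPLGLDpaAR substrate (8 μM working dilution) in 100 mM Tris-HCl pH 7.6, 100 mM NaCl, 10 mM CaCl2, 0.05% Brij 35; ten 3-fold concentrations (100 μM–5.1 nM) in duplicate, 2 h at 37° C. Fluorescence ex 320/em 405 nm, unstopped; IC50 from four-parameter fit.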

In a further assay the target is human ADAM17 (TACE) (Homo sapiens, UniProt P78536). Put plainly: TACE enzyme inhibition assay. It counts as biochemical. The method, then:
Compounds of the invention were tested to assess their activities as inhibitors of MMP-1, MMP-2, MMP-9, MMP-14, MMP-12 and TACE. MMP-9 Assay Protocol
Compounds of the invention can be tested for inhibitory activity against human ADAM17 in an assay using human Mca-(endo-1a-Dap(Dnp)-TNF-alpha(−5 to +6)amide as substrate (FEBS Letters, 2000, 275-279).
Stock solutions are prepared as followed: • Assay Buffer: 20 mM Hepes pH 7.5 (Fluka) containing 0.05% Brij 35 (Fluka) • Substrate: 6.1 mM human Mca-(endo-1a-Dap(Dnp)-TNF-alpha(−5 to +6)amide (Bachem) stock solution in 100% DMSO (stored at −20° C.); diluted to 5 μM in assay buffer. • Enzyme: Recombinant human ADAM17, appropriately diluted in assay buffer (1.5 μg/ml).
Test Compounds are prepared initially as 10 mM compound solution in 100% DMSO, diluted to 1 mM in 100% DMSO, then serially diluted 3-fold in 100% DMSO across a 96-well microtitre plate. Assay concentration range is typically between 100 μM to 0.01 nM. The assay is performed in a total volume of 100 μL per well in 96-well microtitre plates. Appropriate concentrations of test compounds dissolved in 10 μL of DMSO are added to the wells, followed by substrate solution (50 μL, 5 μM prepared by dilution of DMSO stock in assay buffer) and enzyme solution (40 μL). For each as say ten concentrations of test compound are examined in […]. Control wells lack either enzyme or test compound. The reactions are incubated at room temperature for 1.5 hours. The fluorescence at 405 nm is measured immediately with a fluorometer using 355 nm excitation, without stopping the reaction.
The effect of the test compound is determined from the dose response curve generated by the 10 duplicate concentrations of inhibitor. The IC50 (the concentration of compound required to give a 50% decrease in enzyme activity) is obtained by fitting data to the equation, Y=a+((b−a)/(1+(c/X)^d)). (Y=inhibition achieved for a particular dose; X=the dose in nM; a=minimum y or zero % inhibition; b=maximum y or 100% inhibition; c=is the IC50; d=is the slope). The result is rounded to one significant figure.

human ADAM17 (TACE), sequence (P78536 215-824): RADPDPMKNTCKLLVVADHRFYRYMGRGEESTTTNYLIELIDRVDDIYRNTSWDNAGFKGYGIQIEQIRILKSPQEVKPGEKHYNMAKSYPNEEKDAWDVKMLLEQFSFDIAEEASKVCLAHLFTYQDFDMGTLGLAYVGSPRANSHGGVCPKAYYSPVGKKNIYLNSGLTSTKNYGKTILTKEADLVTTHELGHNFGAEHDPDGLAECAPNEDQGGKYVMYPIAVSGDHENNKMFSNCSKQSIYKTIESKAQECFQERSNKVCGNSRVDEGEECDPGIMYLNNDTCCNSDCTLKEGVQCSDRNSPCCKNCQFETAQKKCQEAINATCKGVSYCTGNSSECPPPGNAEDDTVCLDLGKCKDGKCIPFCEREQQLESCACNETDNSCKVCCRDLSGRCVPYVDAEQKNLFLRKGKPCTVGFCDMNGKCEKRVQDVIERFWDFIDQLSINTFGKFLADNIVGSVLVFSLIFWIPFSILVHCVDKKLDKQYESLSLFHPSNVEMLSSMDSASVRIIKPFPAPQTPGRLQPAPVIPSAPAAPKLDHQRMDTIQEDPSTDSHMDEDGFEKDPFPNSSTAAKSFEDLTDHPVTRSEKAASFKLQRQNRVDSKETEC

In the case of `CC(C)(C)CC(CS(=O)(=O)N1Cc2ccc(F)cc2C1)N(O)C=O` (stereo not drawn) [Example 26, N-(1-{[(5-fluoro-1,3-dihydro-2H-isoindol-2-yl)sulfonyl]methyl}-3,3-dimethylbutyl)-N-hydroxyformamide], the negative-log IC50 (pIC50) was 7.22 at gelatinase A (MMP-2) and 5.96 on human ADAM17 (TACE).
The matching figures for `CCC(CC)C(CS(=O)(=O)N1CCc2cc(C(F)(F)F)ccc2C1)N(O)C=O` (stereo not drawn) [Example 37, N-[2-ethyl-1-({[6-(trifluoromethyl)-3,4-dihydroisoquinolin-2(1H)-yl]sulfonyl}methyl)butyl]-N-hydroxyformamide]: 7.46 and 5.96.
Take `CC(C)(Cc1ccccc1)C(CS(=O)(=O)N1CCc2cc(C(F)(F)F)ccc2C1)N(O)C=O` (stereo not drawn) [Example 31, N-[2,2-dimethyl-3-phenyl-1-({[6-(trifluoromethyl)-3,4-dihydroisoquinolin-2(1H)-yl]sulfonyl}methyl)propyl]-N-hydroxyformamide]: the negative-log IC50 (pIC50) was 6.03 at gelatinase A (MMP-2) and less than 5.30 against human ADAM17 (TACE).
The matching figures for `CC(C)CC(CS(=O)(=O)N1CCc2ccc(Br)cc2C1)N(O)C=O` (stereo not drawn) [Example 55, N-(1-{[(7-bromo-3,4-dihydroisoquinolin-2(1H)-yl)-sulfonyl]methyl}-3-methylbutyl)-N-hydroxyformamide]: 7.62 and 6.80.
The matching figures for `CC(C)C(CS(=O)(=O)N1CCc2cc(Cl)c(Cl)cc2C1)N(O)C=O` (stereo not drawn) [Example 39, N-(1-{[(6,7-dichloro-3,4-dihydroisoquinolin-2(1H)-yl)-sulfonyl]methyl}-2-methylpropyl)-N-hydroxyformamide]: 7.80 and 6.77.
The matching figures for `O=CN(O)C(CS(=O)(=O)N1CCc2ccc(-c3ccccc3)cc2C1)C1CCCC1` (stereo not drawn) [Example 69, N-{1-cyclopentyl-2-[(7-phenyl-3,4-dihydroisoquinolin-2(1H)-yl)sulfonyl]ethyl}-N-hydroxyformamide]: 6.28 and 6.22.
With `COc1ccc(C(CS(=O)(=O)N2CCc3ccccc3C2)N(O)C=O)cn1` (stereo not drawn) [Example 13, N-[2-(3,4-dihydroisoquinolin-2(1H)-ylsulfonyl)-1-(6-methoxypyridin-3-yl)ethyl]-N-hydroxyformamide], the pIC50 was less than 5.30 on gelatinase A (MMP-2) and 7.40 at human ADAM17 (TACE).
The matching figures for `O=CN(O)C(CO)CS(=O)(=O)N1CCc2cc(Cl)c(Cl)cc2C1` (stereo not drawn) [Example 49, N-[2-[(6,7-dichloro-3,4-dihydroisoquinolin-2(1H)-yl)-sulfonyl]-1-(hydroxymethyl)ethyl]-N-hydroxyformamide]: 7.96 and 6.62.
The matching figures for `O=CN(O)C(CS(=O)(=O)N1CCc2ccc(-c3ccc(F)cc3)cc2C1)C1CC1` (stereo not drawn) [Example 75, N-(1-cyclopropyl-2-{[7-(4-fluorophenyl)-3,4-dihydro-isoquinolin-2(1H)-yl]sulfonyl}ethyl)-N-hydroxyformamide]: 6.66 and 6.40.
The matching figures for `CC(C)c1ccc2c(c1)CCN(S(=O)(=O)CC([C@H]1COC(C)(C)O1)N(O)C=O)C2` (stereo partly drawn) [Example 18, N-{1-[(4S)-2,2-dimethyl-1,3-dioxolan-4-yl]-2-[(6-isopropyl-3,4-dihydroisoquinolin-2(1H)-yl)sulfonyl]ethyl}-N-hydroxyformamide]: 8.30 and 6.19.
Regarding `CC(C)(C)CC(CS(=O)(=O)N1CCc2ccc(Cl)cc2C1)N(O)C=O` (stereo not drawn) [Example 41, N-(1-{[(7-chloro-3,4-dihydroisoquinolin-2(1H)-yl)sulfonyl]-methyl}-3,3-dimethylbutyl)-N-hydroxyformamide], the negative-log IC50 (pIC50) on gelatinase A (MMP-2) is 7.06; against human ADAM17 (TACE) it was 6.72.
The matching figures for `O=CN(O)C(CS(=O)(=O)N1CCc2cc(C(F)(F)F)ccc2C1)C1CC1` (stereo not drawn) [Example 74, N-(1-cyclopropyl-2-{[6-(trifluoromethyl)-3,4-dihydro-isoquinolin-2(1H)-yl]sulfonyl}ethyl)-N-hydroxyformamide]: 7.01 and less than 5.30.

For orientation: pIC50 means −log10 of the IC50, conventionally taken in molar units.
